According to patent publication US10238713B2, “Cyclic tetrapeptides and therapeutic applications thereof” (LODZ UNIVERSITY OF TECHNOLOGY, priority 2010, dated 2019):
Non-standard residues stand in square brackets, D forms with d. Residues, ends and D or L forms follow the SMILES beside them. β3hF = N[C@H](CC(=O)O)Cc1ccccc1

Legend:
[1] = test system: BALB/c mice, contact sensitivity to oxazolone; experiment: Contact sensitivity to oxazolone in BALB/c mice (ear edema, draining lymph node cells, auricle histology); assay type: in vivo
Protocol: Mice: BALB/c female mice, 8-10 week-old, delivered by the Institute of Laboratory Medicine, Łódź, Poland, were used for the study. The mice were fed a commercial, pelleted food and water ad libitum. The local ethics committee approved the study.
The test was performed according to Noonan et al. (Int. Arch. Allergy Appl. Immunol., 1978, 56, 523-532), with some modifications. Mice were shaved on the abdomen (2×2 cm area) and after 24 h 100 μl of 0.5% oxazolone in acetone was applied to the shaved area. The contact sensitivity reaction was elicited 5 days later by application of 50 μl of 1% oxazolone in acetone on both sides of the ears. Ear edema was measured 48 h later using a spring caliper. The results were presented as antigen-specific increase of ear thickness (i.e. the background (BG) ear thickness of mice was subtracted from the measured thickness).
In the experiment shown, the compound of formula I-A was applied topically as a 0.1% ointment on both sides of the ears (total volume of 50 μl per ear), at 24 h and 26 h after elicitation of the reaction with the second dose of oxazolone. Reference compounds were used in a similar fashion in the form of commercially available preparations.
Superficial parotid, mandibular and accessory mandibular lymph nodes were isolated, homogenized by pressing against a stainless screen into phosphate buffered solution (PBS), washed twice and re-suspended in PBS containing 0.2% Trypan blue. The total and nonviable cell numbers were determined using a light microscope and Bürker's hemocytometer. Mice treated only with the eliciting dose of antigen served as a background control.
The auricles were fixed in 4% formalin solution for 48 h, washed for 24 h, dehydrated in an alcohol series and embedded in paraffin. The paraffin blocks were sliced in a Micron HM310 microtome into 6 μm sections. The sections were stained with haematoxylin and eosin and with toluidine blue. The histological analysis was performed in a Nikon Eclipse 801 light microscope. On the histological slides containing cross-sections of auricles, the morphometric estimations of neutrophils, macrophages, lymphocytes and mast cells in the perivascular and subepithelial connective tissue were performed. The cells were counted on the area of 0.07 mm^2 at 400× magnification. Morphometric analysis was done with the aid of imagine software NIS-Elements (Nikon). For every examined group, 25 enumerations of neutrophils, macrophages, lymphocytes and mast cells were carried out.

[2] = test system: CBA mice, humoral immune response to sheep erythrocytes; experiment: Primary humoral immune response to SRBC in vivo (antibody-forming cells in spleen); conditions: 10 or 100 μg, intraperitoneal, 2 h after immunization, measured after 4 days; FIG. 6
Protocol: CBA female mice, 8-12 weeks old, were delivered by The Institute of Laboratory Medicine, Lodz, Poland. The mice had free access to water and pelleted food. The local ethics committee approved the study. Sheep erythrocytes (SRBC) were delivered by Wroclaw University of Life and Environmental Sciences, Poland, and maintained on RPMI-1640 medium.
Mice were immunized with 0.2 ml of 5% SRBC suspension (0.5 ml of SRBC pellet re-suspended to a volume of 10 ml of 0.9% NaCl), intraperitonelly. After 4 days the number of antibody-forming cells (AFC) in the spleens was determined using an assay of local hemolysis in agar gel (per Mishell et al., J Exp Med, 1967, 126, 423-442). The results are presented in FIG. 6 as a mean value of 5 mice ±standard error and expressed as AFC number per 10^6 of viable splenocytes.
Mice were immunized with SRBC as described above and after 2 h were given 10 or 100 μg of the compound of formula I-A. Cyclosporin A (CsA) served as a reference drug. The number of antibody-forming cells to SRBC was measured after 4 days.

O=C1C[C@H](Cc2ccccc2)NC(=O)[C@@H]2CCCN2C(=O)[C@@H]2CCCN2C(=O)[C@H](Cc2ccccc2)N1 [I-A] (cyclo(FPP[β3hF]))
toxic effect on draining lymph node cells (proportions of viable and dead cells) ([1]; topical treatment, compared to control non-treated mice, FIG. 3): negligible toxic effect | number of cells in the draining lymph nodes ([1]; topical treatment, FIG. 2): decreased the numbers of lymphocytes in the draining lymph nodes to the level registered in non-sensitized mice | cell number and composition in the inflamed auricles (histology) ([1]; topical treatment, FIG. 4): almost entirely reversed the changes observed in control mice | inhibition of the ear edema (antigen-specific increase of ear thickness) ([1]; topical, I-A as 0.1% ointment, references as commercial preparations, 24 h and 26 h after elicitation, FIG. 1): about 80% | inhibition of the number of antibody-forming cells to SRBC [2]: more inhibitory at both doses than CsA
